± gives the standard deviation.
What was measured:
[1] = chemical recovery into PDMS from spiked human plasma; higher = better extraction; settings: pooled human plasma, extraction method: PES with PDMS
[2] = chemical recovery from spiked human plasma; higher = better extraction; settings: pooled human plasma
[3] = chemical recovery by SPE of plasma after PDMS sampling; higher = better extraction; settings: pooled human plasma, extraction method: HLB SPE of plasma after PES
[4] = extraction method: PES+SPE (3 d PDMS equilibration then HLB SPE)
[5] = extraction method: SPE only (HLB 96-well)
[6] = extraction method: SPE only (HLB 96-well), PES comparison experiment
[7] = extraction method: solvent precipitation (ACN + hexane)
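Throughout, for chemical recovery by SPE of plasma after PDMS sampling: over 400 spiked chemicals quantified by LC-HRMS or GC-HRMS via internal standard calibration, recovery relative to spike mix added to unspiked plasma extract to correct matrix effects.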

| SMILES | chemical recovery into PDMS ([1]; equilibration time (d): 3) | chemical recovery into PDMS ([1]; equilibration time (d): 6) | chemical recovery [2, 4] | chemical recovery [2, 5] | chemical recovery [2, 6] | chemical recovery by SPE of plasma ([3]; equilibration time (d): 1) | chemical recovery by SPE of plasma ([3]; equilibration time (d): 3) | chemical recovery by SPE of plasma ([3]; equilibration time (d): 6) | chemical recovery [2, 7] | chemical recovery into PDMS ([1]; equilibration time (d): 1) |
| --- | --- | --- | --- | --- | --- | --- | --- | --- | --- | --- |
| Nc1cccc2ccccc12 [1-Naphthylamine] | 0.33 ± 0.13% | 0.338 ± 0.048% | 4.07 ± 2.1% | 16.7 ± 8.8% | 22 ± 3% | 11.2 ± 0.88% | 12.3 ± 2.6% | 6.22 ± 5.4% | – | – |
| Clc1cc(Cl)c(-c2c(Cl)ccc(Cl)c2Cl)cc1Cl [PCB149] | 103 ± 14% | 100 ± 8.1% | 56.86 ± 0.52% | 4.51 ± 1.5% | 10.4 ± 2% | 3.35 ± 2.2% | 1.54 ± 0.15% | 1.29 ± 0.33% | 91 ± 6.8% | – |
| Clc1ccc(Cl)c(-c2cc(Cl)c(Cl)cc2Cl)c1 [PCB101] | 98.4 ± 14% | 96.9 ± 3.5% | 54.76 ± 0.33% | 1.78 ± 0.57% | 14 ± 2.6% | 1.75 ± 1.3% | 1.62 ± 0.22% | 1.45 ± 0.38% | 91.2 ± 10% | 88.4 ± 5.7% |
| NC(=O)N1c2ccccc2C=Cc2cc(O)ccc21 [2-Hydroxycarbamazepine] | 0.668 ± 0.2% | 0.788 ± 0.13% | 48.1 ± 3.7% | 44.7 ± 3.9% | 51.6 ± 4.5% | 57.7 ± 11% | 55.6 ± 6.7% | 51.7 ± 11% | 68.2 ± 1.6% | 0.215 ± 0.2% |
| Clc1ccc(Cl)c(-c2cccc(Cl)c2Cl)c1 [PCB44] | 90.2 ± 12% | 99.1 ± 11% | 44 ± 11% | 3.94 ± 0.74% | 18.4 ± 4% | 1.35 ± 0.87% | 1.34 ± 0.13% | 1.42 ± 0.29% | – | 83.5 ± 2.1% |

Source: the supplement of paper PMC10702517
